Data from US20160106102A1, “KNOWN AND NEW HETEROCYCLIC COMPOUNDS AS PEST CONTROL AGENTS” (BAYER CROPSCIENCE AKTIENGESELLSCHAFT, priority 2013, published 2016).

Assay: log P determination by LC-MS in the acidic range
Assay type: physicochemical
Conditions: Table 2, compounds of the formula (I-2); acidic range pH 2.7 or pH 2.3
Source text: The LC-MS determination in the acidic range is effected at pH 2.7 using 0.1% aqueous formic acid and acetonitrile (contains 0.1% formic acid) as eluents, linear gradient from 10% acetonitrile to 95% acetonitrile. Alternatively, the determination is effected in the acidic range at pH 2.3 using 0.1% aqueous phosphoric acid and acetonitrile as eluents; linear gradient from 10% acetonitrile to 95% acetonitrile.
With `O=C(Nc1ncn(-c2ccccc2)n1)c1cccnc1` [Compound I-2-5] the “log P (acid)” value was 0.98.
With `O=C(Nc1ncn(Cc2c(Cl)cccc2Cl)n1)c1cccnc1` [Compound I-2-8] the “log P (acid)” value was 1.39.
With `CN(C)C(=O)n1cnc(NC(=O)c2cccnc2)n1` [Compound I-2-9] the “log P (acid)” value was 0.47.
For `CCOc1nc(OCC)nc(-n2cnc(NC(=O)c3cccnc3)n2)n1` [Compound I-2-10], the “log P (acid)” value was 1.41.
In the case of `COc1ccnc(-n2cnc(NC(=O)c3cccnc3)n2)n1` [Compound I-2-11], the “log P (acid)” value is reported as 0.70.
With `CCn1nc(NC(=O)c2cccnc2)nc1SC` [Compound I-2-12] the “log P (acid)” value was 0.71.
In the case of `O=C(Nc1ncn(Cc2ccc(Cl)cc2)n1)c1cccnc1` [Compound I-2-13], the “log P (acid)” value is reported as 1.36.
For `O=C(Nc1ncn(-c2ncccc2Br)n1)c1cccnc1` [Compound I-2-15], the “log P (acid)” value was 0.67.
In the case of `Cc1nc(NC(=O)c2cccnc2)nn1C(C)C` [Compound I-2-20], the “log P (acid)” value is reported as 0.44.
In the case of `CCCn1cnc(NC(=O)c2cccnc2)n1` [Compound I-2-21], the “log P (acid)” value is reported as 0.29.
With `COc1cc(OC)nc(-n2cnc(NC(=O)c3cccnc3)n2)n1` [Compound I-2-24] the “log P (acid)” value was 1.11.
In the case of `Cc1nc(-n2cnc(NC(=O)c3cccnc3)n2)nc(C)c1C` [Compound I-2-25], the “log P (acid)” value is reported as 1.07.
With `O=C(Nc1nc(Cl)n(-c2ccccc2)n1)c1cccnc1` [Compound I-2-27] the “log P (acid)” value was 1.58.
In the case of `COc1nc(NC(=O)c2cccnc2)nn1-c1ccccc1` [Compound I-2-28], the “log P (acid)” value is reported as 1.23.

Same assay, conditions: Table 3; HPLC on reversed-phase column (C 18), 55° C., acidic range (pH 2.7 or pH 2.3)
With `O=C(Nc1nn(-c2ccccc2)nc1Br)c1cccnc1` [Compound I-3-3] the “log P (acid)” value was 2.09.
For `O=C(Nc1cnn(-c2ccc(Cl)cc2)n1)c1cccnc1` [Compound I-3-4], the “log P (acid)” value was 2.43.
In the case of `O=C(Nc1nn(-c2ccc(Cl)cc2Cl)nc1C(F)(F)F)c1cccnc1` [Compound I-3-8], the “log P (acid)” value is reported as 2.97.
For `Cc1nn(-c2ccccc2)nc1NC(=O)c1cccnc1` [Compound I-3-11], the “log P (acid)” value was 1.82.
With `O=C(Nc1nn(-c2ccccc2)nc1C(F)(F)F)c1cccnc1` [Compound I-3-12] the “log P (acid)” value was 2.44.
With `O=C(Nc1nn(-c2ccccc2Cl)nc1Cl)c1cccnc1` [Compound I-3-13] the “log P (acid)” value was 2.04.
In the case of `O=C(Nc1cnn(-c2ncc(Cl)cc2Cl)n1)c1cccnc1` [Compound I-3-15], the “log P (acid)” value is reported as 1.83.
With `Cc1nn(-c2ncc(Cl)cc2Cl)nc1NC(=O)c1cccnc1` [Compound I-3-17] the “log P (acid)” value was 1.74.
In the case of `Cc1nn(-c2cccc(C(F)(F)F)c2)nc1NC(=O)c1cccnc1` [Compound I-3-18], the “log P (acid)” value is reported as 2.58.
In the case of `Cc1nn(-c2ccc(Cl)cc2Cl)nc1NC(=O)c1cccnc1` [Compound I-3-19], the “log P (acid)” value is reported as 2.24.
For `O=C(Nc1nn(-c2ccc(Cl)cc2)nc1C(F)(F)F)c1cccnc1` [Compound I-3-20], the “log P (acid)” value was 2.93.
With `O=C(Nc1nn(-c2ncccc2Cl)nc1Cl)c1cccnc1` [Compound I-3-21] the “log P (acid)” value was 1.51.
For `Cc1nn(-c2cc(Cl)ccc2Cl)nc1NC(=O)c1cccnc1` [Compound I-3-22], the “log P (acid)” value was 2.26.
With `Cc1nn(-c2ccccc2Cl)nc1NC(=O)c1cccnc1` [Compound I-3-23] the “log P (acid)” value was 1.71.
For `O=C(Nc1cnn(-c2c(F)cccc2F)n1)c1cccnc1` [Compound I-3-24], the “log P (acid)” value was 1.67.

Same assay, conditions: Table 4; HPLC on reversed-phase column (C 18), 55° C., acidic range (pH 2.7 or pH 2.3)
In the case of `COc1cc(OC)nc(-n2nnc(NC(=O)c3cccnc3)n2)n1` [Compound I-4-4], the “log P (acid)” value is reported as 1.35.
In the case of `CCOC(=O)Cn1nnc(NC(=O)c2cccnc2)n1` [Compound I-4-5], the “log P (acid)” value is reported as 0.71.
For `O=C(Cn1nnc(NC(=O)c2cccnc2)n1)NCc1cccc2ccccc12` [Compound I-4-7], the “log P (acid)” value was 1.71.
With `CCCn1nnc(NC(=O)c2cccnc2)n1` [Compound I-4-9] the “log P (acid)” value was 0.76.
In the case of `O=C(Nc1nnn(Cc2ccccc2)n1)c1cccnc1` [Compound I-4-10], the “log P (acid)” value is reported as 1.38.
In the case of `CCCCNC(=O)Cn1nnc(NC(=O)c2cccnc2)n1` [Compound I-4-11], the “log P (acid)” value is reported as 0.97.

Same assay, conditions: amines of the formula (II-1); acidic range pH 2.7 (0.1% formic acid/acetonitrile) or pH 2.3 (0.1% phosphoric acid/acetonitrile)
In the case of `Nc1cc(C2CC2)n(Cc2ccc(Cl)nc2)n1` [II-1-1], the “log P (acid)” value is reported as 1.21.
In the case of `Nc1cc(C2CC2)n(Cc2ccccc2)n1` [II-1-2], the “log P (acid)” value is reported as 1.36.
For `Nc1ccn(Cc2ccc(Cl)nc2)n1` [II-1-3], the “log P (acid)” value was 0.56.
In the case of `C#CCn1nc(N)cc1C1CC1` [II-1-4], the “log P (acid)” value is reported as 0.63.
In the case of `Cc1cc(N)nn1Cc1ccc(Cl)nc1` [II-1-5], the “log P (acid)” value is reported as 0.77.
With `Cc1cc(N)nn1-c1cnccn1` [II-1-6] the “log P (acid)” value was 0.8.
For `Nc1ccn(C(CF)CF)n1` [II-1-7], the “log P (acid)” value was −0.09.
With `Cc1cc(C)nc(Cn2nc(N)cc2C)n1` [II-1-9] the “log P (acid)” value was 0.42.
In the case of `Cc1cc(N)nn1Cc1nccs1` [II-1-10], the “log P (acid)” value is reported as 0.19.
With `Cc1cc(N)nn1Cc1cccc(OC(F)(F)F)c1` [II-1-11] the “log P (acid)” value was 1.39.
With `COc1cc(OC)nc(Cn2nc(N)cc2C)n1` [II-1-12] the “log P (acid)” value was 0.81.
With `Cc1cc(N)nn1CCCl` [II-1-13] the “log P (acid)” value was 0.13.
With `Cc1ccnc(Cn2nc(N)cc2C)n1` [II-1-16] the “log P (acid)” value was 0.02.
With `C#CCn1nc(N)cc1CC` [II-1-17] the “log P (acid)” value was 0.46.
For `Cc1cc(N)nn1Cc1ccncc1` [II-1-18], the “log P (acid)” value was 0.45.
For `CCc1cc(N)nn1Cc1ccc(Cl)nc1` [II-1-19], the “log P (acid)” value was 1.11.
With `C#CCn1nc(N)cc1C` [II-1-20] the “log P (acid)” value was −0.15.
For `Cc1cc(N)nn1Cc1ncccc1Cl` [II-1-24], the “log P (acid)” value was 0.6.
For `Cc1cc(N)nn1Cc1ncccc1C#N` [II-1-25], the “log P (acid)” value was 0.21.
With `Cc1cc(N)nn1C(F)F` [II-1-27] the “log P (acid)” value was 0.47.
For `Cc1cc(N)nn1Cc1cccnc1` [II-1-28], the “log P (acid)” value was less than −0.23.
In the case of `Cc1cc(N)nn1-c1ncccc1Cl` [II-1-31], the “log P (acid)” value is reported as 0.79.
With `CCOCn1nc(N)cc1C` [II-1-33] the “log P (acid)” value was 0.15.
With `Cc1c(Br)c(N)nn1Cc1ncccn1` [II-1-34] the “log P (acid)” value was 0.92.
With `Nc1cc(C(F)(F)F)n(Cc2ncccn2)n1` [II-1-35] the “log P (acid)” value was 1.06.
In the case of `Nc1cc(Cl)n(Cc2ncccn2)n1` [II-1-36], the “log P (acid)” value is reported as 0.49.
For `Cc1cc(N)nn1C(C)(C)C#N` [II-1-37], the “log P (acid)” value was 0.64.
With `Cc1ccn(Cn2nc(N)cc2C)n1` [II-1-38] the “log P (acid)” value was 0.55.
For `Cc1ccnn1Cn1nc(N)cc1C` [II-1-39], the “log P (acid)” value was 0.52.
For `Cn1nc(N)cc1C(F)F` [II-1-40], the “log P (acid)” value was 0.22.
For `Cc1cc(N)nn1Cn1nccc1C(F)(F)F` [II-1-41], the “log P (acid)” value was 1.26.
In the case of `Cc1cc(N)nn1Cn1ccc(C(F)(F)F)n1` [II-1-42], the “log P (acid)” value is reported as 1.51.
In the case of `Cc1cc(N)nn1Cn1cncn1` [II-1-43], the “log P (acid)” value is reported as −0.23.
With `Cc1cc(N)nn1CN1CCS/C1=N/C#N` [II-1-44] the “log P (acid)” value was 0.44.
In the case of `Cc1cc(N)nn1Cn1ccnn1` [II-1-45], the “log P (acid)” value is reported as less than −0.23.
With `Cc1cc(N)nn1Cn1nc(C)n(C)c1=O` [II-1-46] the “log P (acid)” value was less than −0.23.

Same assay, conditions: pH 2.7, amines of the formula (II-1); acidic range pH 2.7 (0.1% formic acid/acetonitrile) or pH 2.3 (0.1% phosphoric acid/acetonitrile); read-out: log P (acid)
In the case of `Nc1ccn(Cc2ncc(C(F)(F)F)cc2Cl)n1` [II-1-8, 1-{[3-Chloro-5-(trifluoromethyl)pyridin-2-yl]methyl}-1H-pyrazole-3-amine], the chromatographic logP is reported as 1.36.
With `Cc1cc(N)nn1Cc1ncccn1` [II-1-23, 5-Methyl-1-(pyrimidin-2-ylmethyl)-1H-pyrazole-3-amine] the chromatographic logP was less than -0.23.
Work on `Nc1cc(Br)n(Cc2ncccn2)n1` [II-1-30, 5-Bromo-1-(pyrimidin-2-ylmethyl)-1H-pyrazole-3-amine] yielded a chromatographic logP of 0.56.

Same assay, conditions: pH 2.7, values given in the synthesis examples and NMR lists; read-out: HPLC-MS: log P
Work on `Nc1ccn(Cc2ncc(C(F)(F)F)cc2Cl)n1` [II-1-8, 1-{[3-Chloro-5-(trifluoromethyl)pyridin-2-yl]methyl}-1H-pyrazole-3-amine] yielded a chromatographic logP of 1.36.
`Cc1cc(N)nn1Cc1ncccn1` [II-1-23, 5-Methyl-1-(pyrimidin-2-ylmethyl)-1H-pyrazole-3-amine] showed a chromatographic logP of less than -0.23.
Work on `Nc1cc(Br)n(Cc2ncccn2)n1` [II-1-30, 5-Bromo-1-(pyrimidin-2-ylmethyl)-1H-pyrazole-3-amine] yielded a chromatographic logP of 0.56.
